Laboratory results reported in patent US5484934A, “Isothiazole derivatives, a process for production thereof and uses thereof” (Nihon Nohyaku Co., Ltd., priority 1992, dated 1996).

Tests used:
[1] = system: Coriolus versicolor; assay: Inhibition of hypha growth on malt extract agar, Coriolus versicolor; type: cell-based; settings: Trametes versicolor, 28±2° C., 2 to 10 days, read-out: Controlling effect (growth inhibition rate) COV
[2] = system: Tyromyces palustris; assay: Inhibition of hypha growth on malt extract agar, Tyromyces palustris; settings: read-out: Controlling effect (growth inhibition rate) TYP
Description: (§1) Each preparation to be tested was added to malt extract agar medium to adjust the concentration to 50 ppm, and the resulting mixture was dispensed into Petri dishes. As an inoculum, a prepared mycerial tuft of each test fungus was punched out together with agar by means of a 4-mm-diameter cork borer and inoculated on medium. The incubation temperature was adjusted to 28±2° .C (or 18±2° C. in the case of Selupula lacrymas).
(§2) The diameter of mycerial tuft was measured 2 to 10 days after the inoculation, and the inhibition rate of hypha growth (the following equation) was measured.

[3] = system: Cladosporium cladosporioides; assay: Inhibition of hypha growth on malt extract agar, Cladosporium cladosporioides; settings: read-out: Controlling effect (growth inhibition rate) CLC
Description: as §1, §2

[4] = system: Chaetomium globosum; assay: Inhibition of hypha growth on malt extract agar, Chaetomium globosum; settings: read-out: Controlling effect (growth inhibition rate) CHG
Description: as §1, §2
(§3) The controlling effect was evaluated according to the following criterion.

[5] = system: Alternaria mali; assay: Inhibition of hypha growth on malt extract agar, Alternaria mali; settings: read-out: Controlling effect (growth inhibition rate) ALM
Description: as §1, §2, §3

[6] = system: Aspergillus niger; assay: Inhibition of hypha growth on malt extract agar, Aspergillus niger; settings: read-out: Controlling effect (growth inhibition rate) ASN
Description: as §1, §2, §3

[7] = system: Trichoderma viride; assay: Inhibition of hypha growth on malt extract agar, Trichoderma viride; settings: read-out: Controlling effect (growth inhibition rate) TRV
Description: as §1, §2

[8] = system: Rhizopus nigricans; assay: Inhibition of hypha growth on malt extract agar, Rhizopus nigricans; settings: Rhizopus stolonifer, read-out: Controlling effect (growth inhibition rate) RHS
Description: as §1, §2

[9] = system: Serpula lacrymans; assay: Inhibition of hypha growth on malt extract agar, Serpula lacrymans; settings: read-out: Controlling effect (growth inhibition rate) SEL
Description: as §1, §2

[10] = system: Fusarium oxysporum; assay: Inhibition of hypha growth on malt extract agar, Fusarium oxysporum; settings: read-out: Controlling effect (growth inhibition rate) FUO
Description: as §1, §2, §3

Structure (SMILES) | inhibition at 50 ppm [1] [%] | inhibition at 50 ppm [2] [%] | inhibition at 50 ppm [3] [%] | inhibition at 50 ppm [4] [%] | inhibition at 50 ppm [5] [%] | inhibition at 50 ppm [6] [%] | inhibition at 50 ppm [7] [%] | inhibition at 50 ppm [8] [%] | inhibition at 50 ppm [9] [%] | inhibition at 50 ppm [10] [%]
Cc1ccc(S(=O)(=O)c2snc(O)c2C#N)cc1 [Compound 2] | 85 to 99 | 55 to 84 | 55 to 84 | 85 to 99 | 55 to 84 | 55 to 84 | 85 to 99 | 85 to 99 | 55 to 84 | 55 to 84
N#Cc1c(O)nsc1S(=O)(=O)c1ccc(F)cc1 [Compound 11] | 85 to 99 | 85 to 99 | 55 to 84 | 85 to 99 | 55 to 84 | 55 to 84 | 85 to 99 | 85 to 99 | 55 to 84 | 85 to 99
C=C(C)COc1nsc([S+](C)[O-])c1C#N (stereo not shown) [Compound 17] | 85 to 99 | 100 | 100 | 100 | 100 | 100 | 100 | 100 | 100 | 100
CCOC(=O)C[S+]([O-])c1snc(OC)c1C#N (stereo not shown) [Compound 18] | 100 | 100 | 100 | 100 | 85 to 99 | 100 | 100 | 100 | 100 | 85 to 99
CCC(C)S(=O)(=O)c1snc(OC(F)F)c1C#N (stereo not shown) [Compound 28, 3-difluoromethoxy-4-cyano-5-s-butylsulfonylisothiazole] | 100 | 100 | 85 to 99 | 85 to 99 | 100 | 85 to 99 | 100 | 100 | 100 | 100
CC(C)(C)S(=O)(=O)c1snc(OC(F)F)c1C#N [Compound 29] | 100 | 100 | 85 to 99 | 100 | 85 to 99 | 85 to 99 | 100 | 100 | 85 to 99 | 85 to 99
N#Cc1c(OC(F)F)nsc1S(=O)(=O)C1CCCC1 [Compound 30, 3-difluoromethoxy-4-cyano-5-cyclopentylsulfonylisothiazole] | 100 | 100 | 85 to 99 | 100 | 85 to 99 | 85 to 99 | 100 | 100 | 85 to 99 | 85 to 99
CCCOc1nsc(S(C)(=O)=O)c1C#N [Compound 43] | 100 | 100 | 100 | 85 to 99 | 85 to 99 | 85 to 99 | 85 to 99 | 100 | 100 | 85 to 99
CC=CCOc1nsc(S(C)(=O)=O)c1C#N [Compound 57] | 100 | 100 | 100 | 85 to 99 | 85 to 99 | 85 to 99 | 85 to 99 | 85 to 99 | 100 | 100
CCS(=O)(=O)c1snc(OCC=CCl)c1C#N [Compound 59] | 100 | 100 | 100 | 100 | 100 | 100 | 100 | 100 | 100 | 100
CCOCCOc1nsc(S(C)(=O)=O)c1C#N [Compound 73] | 100 | 100 | 85 to 99 | 100 | 85 to 99 | 85 to 99 | 85 to 99 | 100 | 100 | 100
CC(C)S(=O)(=O)c1snc(OC[Si](C)(C)C)c1C#N [Compound 77, 3-trimethylsilylmethoxy-4-cyano-5-isopropylsulfonylisothiazole] | 100 | 85 to 99 | 85 to 99 | 100 | 85 to 99 | 85 to 99 | 100 | 100 | 100 | 85 to 99
COC(=O)CS(=O)(=O)c1snc(OC)c1C#N [Compound 81] | 100 | 100 | 100 | 100 | 100 | 100 | 100 | 100 | 100 | 100
COc1ccc(S(=O)(=O)c2snc(OC)c2C#N)cc1 [Compound 94] | 100 | 100 | 100 | 100 | 100 | 100 | 100 | 100 | 100 | 100
COc1nsc(S(=O)(=O)c2ccc(F)cc2)c1C#N [Compound 96] | 100 | 100 | 100 | 100 | 100 | 100 | 100 | 100 | 100 | 100
COc1nsc(S(=O)(=O)c2c(C)cc(C)cc2C)c1C#N [Compound 97] | 100 | 100 | 85 to 99 | 100 | 100 | 85 to 99 | 100 | 100 | 100 | 100
CCOc1nsc(S(=O)(=O)c2ccc(Cl)cc2)c1C#N [Compound 100] | 100 | 100 | 100 | 100 | 100 | 100 | 100 | 100 | 100 | 100
COC(=O)COc1nsc(S(=O)(=O)c2ccccc2)c1C#N [Compound 109] | 100 | 100 | 100 | 100 | 100 | 100 | 100 | 100 | 100 | 100
N#Cc1c(OC(F)F)nsc1S(=O)(=O)c1ccc(Cl)cc1 [Compound 111] | 85 to 99 | 100 | 100 | 100 | 100 | 100 | 100 | 100 | 85 to 99 | 85 to 99
Cc1ccc(Cl)cc1S(=O)(=O)c1snc(OC(F)F)c1C#N [Compound 113] | 100 | 100 | 100 | 100 | 100 | 100 | 100 | 100 | 100 | 100
CC(C)(C)c1ccc(S(=O)(=O)c2snc(OC(F)F)c2C#N)cc1 [Compound 117] | 100 | 85 to 99 | 85 to 99 | 100 | 85 to 99 | 100 | 100 | 100 | 100 | 85 to 99
C=CCOc1nsc(S(=O)(=O)c2ccc(C)cc2)c1C#N [Compound 119] | 100 | 85 to 99 | 100 | 100 | 85 to 99 | 85 to 99 | 100 | 100 | 100 | 85 to 99
